“Also recorded” adds a separate entry of the source. Like-named read-outs stand apart in the source and are kept apart here.
Columns and labels:
[1] = rat, in vivo
Procedure: (§2) Plasma concentrations of total radioactivity and of the metabolites were determined at different timepoints. Tissue concentrations of total radioactivity were determined from a range of tissues at different timepoints up to 120 hours following injection. Liver tissues were extracted and metabolite concentrations were determined up to 72 hours post injection.

TLX/5 lymphoma = experiment: Anti-tumour activity against murine TLX/5 lymphoma; type: in vivo, CBA mice; details: FIG. 16; for Maximum increase in lifespan: i.p. days 3-7, 6.25-50 mg/kg/day, median of 5; for doses at which active (increase in life span): i.p. treatment for 5 days
Procedure: CBA mice weighing 20-25 g were inoculated subcutaneously inguinally with 1×10^5, TLX/5 tumour cells day 0. […] Doses were in the range 6.25-50 mg/kg/day. There were 5 mice per treatment per group and 10 tumour-bearing controls. Activity was assessed in terms of increase in life span (ILS) versus controls.

[2] = tested on: Raji human B-lymphoma cells; experiment: Raji leptomeningal carcinomatosis model in nude rats; type: in vivo; details: for mean day of death: 3 bolus injections on day 1, 2 and 4
Procedure: The model used is a tumour model in nude rats for leptomeningal growth of tumours. 1×10^6 cells of the Bcell tumour line Raji were injected into the spinal fluid through cistema magna (c.m.). of 4-5 weeks old nude rats. […] Anaesthetised animals were treated intracerebrally with a 40 μl injection into cistema magna with 3 or 4 bolus injections. Treatment was started 1 day after cell inoculation.

[3] = tested on: brain metastasis of a melanoma; experiment: Clonogenic agarose assay, melanoma brain metastasis biopsy; type: cell-based, human
Procedure: A biopsy was taken from the patient and placed immediately in a growth medium. […] Twenty-four hours before termination of the cultures (7 days) ^3H Thymidin was added. The activity of the test substance is thus quantified as cpm in a scintillation counter.

[4] = tested on: A549 cells (human lung carcinoma); experiment: Cell inactivation, colony forming ability, A549; type: cell-based; details: FIG. 9; exposed for 24 hours
Procedure: (§1) Cell inactivation measured by means of loss of ability to form colonies was determined for several compounds. Cells used were of the established human cell lines of cancer cervix in situ origin, NHIK 3025, NHIK 3025/DDP, a cis-DDP-resistant variant of the same or A549 cells (human lung carcinoma). The cells were exposed to the test compound for 4 up till 24 hours. Test compounds were administered as micellar solution. Number of colonies were counted after about 12 days of incubation.
The cells were exposed for 24 hours.

[5] = tested on: Raji human B-lymphoma cells; experiment: Leukaemia model using Raji cells in SCID mice; type: in vivo
Procedure: SCID mice were injected intravenously with 1×10^6 Raji human B-lymphoma cells. […] Animals develop paralysis of the hind legs as a result of the tumour growth.

[6] = Comparative pharmacokinetic, distribution, metabolism and excretion, i.v. to male rats; details: for Excretion of radioactivity: 14C-Ara-C-elaidate 5 mg/kg or 14C-Ara-C 2.4 mg/kg
Procedure: as §2

NHIK 3025/DDP cells = experiment: Cell inactivation, colony forming ability, NHIK 3025/DDP; type: cell-based, human; details: FIG. 8; 4 h treatment
Procedure: as §1
The results here are obtained with 4 h treatment of NHIK 3025/DDP cells.

[7] = tested on: glioblastoma cell line U-118; experiment: Glioblastoma U-118 subcutaneous tumour in nude mice, intratumoural injection
Procedure: A glioblastoma cell line U-118 (Uppsala) tissue culture was injected subcutaneously in nude mice. A small part (2×2 mm) of growing tumour was transferred to new mice. […] Depending on the actual tumour size, the animals received the same relative amount of test substance. The control was given saline water. The growth rate was recorded as relative tumour volume (RTV).

[8] = tested on: PV/2b/35 hemangiosarcoma cells; experiment: Anti-tumour activity in SCID mice with hemangiosarcoma cells; type: in vivo; details: FIG. 17, 25 mg/kg/day
From the text: SCID mice were inoculated intraperitoneally with PV/2b/35 hemangiosarcoma cells. […] Controls were empty micelles, DMSO or PBS respectively. The animals were not treated during weekends. Survival was the endpoint of the study.

[9] = tested on: Molt 4 human lymphoma cells; experiment: Molt 4 leptomeningal carcinomatosis model in nude rats; type: in vivo; details: FIG. 12; treated 4x in cisterna magna
Procedure: The model used is a tumour model in nude rats for leptomeningal growth of tumours. 10^6 cells of the T-cell tumour line Molt 4 were injected into the spinal fluid through cistema magna (c.m.) of 4-5 weeks old nude rats. The animals develop neurological symptoms after 20-22 days if untreated. Anaesthetised animals were treated intracerebrally with a 40 μl injection into cistema magna with 4 bolus injections. Treatment was started 1 day after cell inoculation. Test compounds were Ara-C-5′-elaidyl ester (in micelles) and Ara-C. Ara-C was administered both at maximal tolerable dose (MTD) and at an equimotar dose to Ara-C-5′-elaidyl ester. Control animals (treated with NaCl) developed symptoms from the central nervous system after approximately 20 days.

NFkappaB = experiment: Activation of the cellular transcription factor NFkappaB (β-galactosidase reporter, SW480 cells); type: cell-based, human; details: FIG. 15; exposure 4 h
Procedure: Human SW480 colon adenocarcinoma cells stably transfected with a CMV promotor/enhancer containing the gene for β-galactosidase were used. Activation of the transcription factor NFkappaB results in enhanced amount of the enzyme β-galactosidase in cytoplasma. The amount of β-galactosidase is quantified using optical density at 570 nm as parameter. The […] cells were incubated 2-3 days before exposure to the test compound for 4 h. The cells were washed and prepared, and optical density recorded for the different compounds.

[10] = tested on: glioblastoma taken from a patient; experiment: Clonogenic agarose assay, glioblastoma biopsy; type: cell-based, human; details: FIGS. 1 and 2
Procedure: A biopsy was taken from the patient and placed immediately in a growth medium. Tumour tissue was desegregated mechanically, and living cells were selected the chemotherapeutic test substance was added, BCNU (in water) and Ara-C and Ara-C esters (in micelles), and the cells were cultivated in a soft agarose medium. Twenty-four hours before termination of the cultures (7 days) ^3H Thymidin was added. The activity of the test substance is thus quantified as cpm in a scintillation counter.
The results here are obtained with a glioblastoma taken from a patient. The same response pattern is found in 8 other glioblastoma biopsies. […] The results are given as % of the untreated control. A count of 50% (CD50) is taken as promising regarding use in therapy of this actual cancer line. What is worth nothing here is the 10^1.5 higher concentration of Ara-C needed to obtain CD50 as compared with elaidyl esters.

Nc1ccn([C@@H]2O[C@H](CO)[C@@H](O)[C@@H]2O)c(=O)n1 [Ara-C, 1-β-D-arabinofuranosylcytosine, reference compound]
time up to which Ara-C is detectable in plasma ([1]; male): 24 h
liver concentration of Ara-C ([1]; male, 4 h): non-detectable levels after 4 hours
plasma levels of both Ara-C and Ara-U ([1]; male, 48 h): below the assay limit of detection at 48 h
proportion of the dose in whole-blood ([1]; male, iv, 0.08 h): 7.76%
Maximum increase in lifespan (TLX/5 lymphoma): 32.7%
doses at which active (increase in life span) (TLX/5 lymphoma): only active at the dose 25 mg/kg
mean day of death ([2]; FIG. 10): 13 days
effect on survival ([2]; FIG. 11, 4 bolus doses day 1-4, Ara-C at MTD and at dose equimolar to Ara-C-elaidate): void of activity; also recorded: no effects
difference (CD50 concentration) between Ara-C and the 3′- and 5′-elaidyl esters ([3]; FIG. 3): ~10 times

CCCCCCCCCCCC=CCCCCC(=O)OCC1OC(n2ccc(N)nc2=O)C(O)C1O (stereo not drawn) [Ara-C-5′-petroseline ester]
inactivation (colony forming ability) compared to Ara-C [4]: enhanced effect

CCCCCCCCCCCCCCCCCC(=O)OCC1OC(n2ccc(N)nc2=O)C(O)C1O (stereo not drawn) [Ara-C-5′-stearyl ester]
inactivation (colony forming ability) compared to Ara-C [4]: highest inactivation

CCCCCCCC/C=C/CCCCCCCC(=O)OC[C@H]1O[C@@H](n2ccc(N)nc2=O)[C@@H](O)[C@@H]1O [Ara-C-elaidate, 5′-O-(Elaidoyl) 1-β-D-arabinofuranosylcytosine]
initial whole blood and plasma concentration compared to Ara-C [1]: higher
maximal concentrations compared to Ara-C [1]: lower
maximal concentrations in most tissues compared to Ara-C [1]: notably higher and occurred at later timepoints
plasma levels of both Ara-C and Ara-U [1]: can still be quantified at 72 h
tissue concentration of total radioactivity compared to 14C-Ara-C [1]: higher at all timepoints up to 120 hours
concentration of active drug in RES tissues compared to Ara-C ([1]; iv): significantly higher
elimination from tissues compared to 14C-Ara-C ([1]; iv): much slower
tissue distribution compared to Ara-C ([1]; iv): significantly altered
Maximum increase in lifespan (TLX/5 lymphoma): 47.2%
doses at which active (increase in life span) (TLX/5 lymphoma): active at the doses 12.5 mg/kg and 25 mg/kg
inactivation (colony forming ability) compared to Ara-C [4]: enhanced effect
fraction of the molar dose of Ara-C giving similar anti-cancer effects ([5]; FIG. 13): 1/20
mean survival ([5]; FIG. 13, i.v. days 7, 9, 11, 13, 15, 20 mg/kg Ara-C-elaidate vs 200 mg/kg Ara-C): increased mean survival compared to control and Ara-C treated animals
mean survival time ([5]; FIG. 14, i.p. once daily days 7-11, versus every other day): greatly prolonged
Excretion of radioactivity ([6]; 0-6 hours, i.v. male rats): 59.1 ± 3.7 % of dose
Excretion of radioactivity ([6]; 6-24 hours, i.v. male rats): 34.1 ± 2.5 % of dose
Excretion of radioactivity ([6]; 24-48 hours, i.v. male rats): 2.7 ± 0.8 % of dose
Excretion of radioactivity ([6]; 48-72 hours, i.v. male rats): 0.5 ± 0.1 % of dose
Excretion of radioactivity ([6]; 72-96 hours, i.v. male rats): 0.2 ± 0.1 % of dose
detection of metabolite Ara-U in liver ([6]; FIG. 19): no detection of Ara-U up to 24 hours
time a therapeutic significant Ara-C level is sustained in liver ([6]; FIG. 19, after dosing the ester): at least 72 h
time up to which Ara-C is detectable in plasma ([6]; FIG. 20): 72 h
metabolism of Ara-C to Ara-U ([6]; FIG. 20, plasma): less extensive, and starts later
rate of excretion of radioactivity in urine compared to 14C-Ara-C ([6]; Table 2): slower
proportion of the dose in whole-blood ([6]; at 0.08 hours after i.v. administration): 64.7%
excretion via the renal system compared to Ara-C ([6]; i.v. male rats): much slower
conversion to Ara-U compared to Ara-C ([6]; table 1 and FIG. 20): slower
effect on colony forming ability compared to Ara-C (NHIK 3025/DDP cells): Enhanced effect
CNS disturbance ([7]; FIG. 18, intratumoural injection): nor was there noted any sign of CNS disturbance
tumour growth (relative tumour volume) ([7]; FIG. 18, intratumoural injection of 10 mg/ml micellar solution): complete stop in tumour growth
toxic side effects ([7]; mouse, in vivo): no signs of toxic side effects
increase of symptom free latency period as compared to Ara-C ([2]; FIG. 10, 3 bolus injections into cisterna magna on day 1, 2 and 4): 135%
mean day of death ([2]; FIG. 10): 30.5 days
survival of one rat (considered cured) ([2]; FIG. 10, 3 bolus injections, no tumours at necropsy day 76): more than 70 days
rats still alive and symptom-free at day 70 ([2]; FIG. 11, 4 daily bolus doses day 1-4 into cisterna magna): 3 out of 5
survival ([8]; 5 days per week): greatly enhanced
survival compared to control ([8]; dissolved in DMSO): enhanced survival compared to control
survival compared to control ([8]; prepared in micelles): enhanced survival compared to control
onset of death compared to Ara-C or control [9]: delayed
β-galactosidase activity (optical density at 570 nm), NFkappaB activation (NFkappaB): substantial increase in β-galactosidase activity

O=NN(CCCl)C(=O)NCCCl [BCNU, N,N-cis(2-chloroethyl)N-nitroso-urea]
concentration needed to obtain CD50, times higher than with the Ara-C esters [10]: about 10 times
concentration needed to obtain CD50 compared to Ara-C alone [10]: reasonably comparable
higher concentration to give CD50 compared to the Ara-C esters ([3]; FIG. 4): more than 1×10^2
